Experimental findings from US7825256B2, “Inducible nitric oxide synthase dimerization inhibitors” (Kalypsys, Inc., priority 2004, dated 2010) are described below.

One assay concerns the target T1, hiNOS (Homo sapiens, UniProt P35228).
T1 construct: expressed in transfected cells; host or cells: HEK293
In words: DAN assay, hiNOS expressed in transiently transfected HEK293 cells. The class given is cell-based. Conditions: HEK293 cells transiently transfected with hiNOS. The gist of the method:
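Human iNOS, nNOS or eNOS transiently expressed in HEK293 cells, with nNOS and eNOS needing added cofactors for activity. NO production is read as nitrite by fluorometry: 2,3-diaminonaphthalene forms fluorescent […], detecting 10 nM to 10 μM nitrite.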

Another assay addresses T2, iNOS (Rattus norvegicus, UniProt Q06518).
T2 construct: from tissue; host or cells: whole animal: male Lewis rats after LPS injection; blood samples collected
In words: LPS challenge (LPS induced iNOS in vivo). Conditions: for ED50: ED50 class. From the text: Inhibition of induction of iNOS can be quantified via the LPS challenge. Inflammation, edema, and the onset of sepsis can be observed following an injection of lipopolysaccharide (LPS), a substance produced by Gram-negative bacteria. […] (Iuvone T et al., Evidence that inducible nitric oxide synthase is involved in LPS-mediated plasma leakage in rat skin through the activation of nuclear factor-κB, Br J Pharm 1998:123 1325-1330.) As described above, the level of nitric oxide in the specimen can be quantified by correlation with plasma nitrate or nitrite levels via chemiluminescence, fluorescence, spectrophotometric assays, or by any method known in the art which provides adequate sensitivity and reproducibility, including those described above.
Male Lewis rats weighing 150-250 g are used in the studies. Rats may be fasted for up to 16 hours prior to the administration of LPS. Free access to water is maintained. Test compounds are administered with LPS or alone. Compounds are dissolved in the vehicle of 0.5% methycele/0.025% Tween 20 or 20% encapsin for oral administration. For the intravenous dosing, compounds are dissolved in saline or 0.5-3% DMSO/20% encapsin. The dosing volumes are 1-2 ml for oral and 0.3-1 ml for intravenous administration.
LPS is injected intravenously (under anesthesia) or intraperitoneally in sterile saline at a dose between 0.1-10 mg/kg in a volume not excess to 1 ml. The needle is 26-30 gauge. […] In routine screening experiments, rats are sacrificed 1.5-6 hr after LPS injection and a terminal bleeding is performed under anesthesia to collect 1-3 ml blood samples and then animals are then euthanized by CO2.

For orientation: EC50 means the concentration at which the effect is half-maximal. Low readings indicate higher potency in that assay, high ones lower potency in that assay. As usually defined, the ED50 is the dose that gives a 50% effect, or the effect in half of the subjects. A lower ED50 goes with greater potency. Molecule `CN(CCCNCc1ccc2c(c1)OCO2)c1nc(-n2ccnc2)ns1` [Example 2, N′-Benzo[1,3]dioxol-5-ylmethyl-N-(3-imidazol-1-yl-[1,2,4]thiadiazol-5-yl)-N-methyl-propane-1,3-diamine] registered a 50% effective concentration (EC50) on hiNOS of less than 1 µM. Besides, on iNOS, the median effective dose (ED50) is less than 10 mg/kg.
The matching figures for `Cc1cc(C2CCCN2C(=O)NCCc2ccc3c(c2)OCO3)nc(-n2ccnc2)n1` (stereo not drawn) [Example 4, 2-(2-Imidazol-1-yl-6-methyl-pyrimidin-4-yl)-pyrrolidine-1-carboxylic acid (2-benzo[1,3]dioxol-5-yl-ethyl)-amide]: less than 1 µM and less than 10 mg/kg.
What is called inhibition is the relative decrease from the control value, in per cent. The low end stands for a response near the control, the high end for a response far below the control. Molecule `Cc1cc(C2CCCN2C(=O)CNCc2ccc3c(c2)OCO3)nc(-n2ccnc2)n1` (stereo not drawn) [Example 5] returned a concentration for a half-maximal effect (EC50) on hiNOS of less than 1 µM. For the same molecule, the inhibition at 16 mg/kg against iNOS (at 16 mg/kg) was determined as 64%.
